# Patent publication US4141986A, “Antibiotics 890A2 and 890A5” (Merck & Co., Inc., priority 1977, dated 1979)
# Tests used:
# Type in all cases: cell-based
# [1] = tested on: Vibrio percolans resistant to ceph. C) MB-2566; assay: In vitro antibacterial spectrum profile, agar diffusion; conditions: Comamonas terrigena, read-out: Inhib. Zone Diam.
# [2] = tested on: Staphylococcus aureus (res. methicillin) MB-2949; assay: as above; conditions: read-out: Inhib. Zone Diam.
# [3] = tested on: Staphylococcus aureus MB-698; assay: as above; conditions: read-out: Inhib. Zone Diam.
# [4] = tested on: Vibrio percolans ATCC 8461; assay: as above; conditions: Comamonas terrigena, ATCC8461, read-out: Inhib. Zone Diam.
# [5] = tested on: Aerobacter aerogenes MB-835; assay: as above; conditions: Klebsiella aerogenes, MB835, read-out: Inhib. Zone Diam.
# [6] = tested on: Vibrio percolans + Aerobacter Lactamase MB-1272; assay: In vitro antibacterial spectrum profile, agar diffusion, with Aerobacter lactamase; conditions: Comamonas terrigena, read-out: Inhib. Zone Diam.
# [7] = tested on: Erwinia atroseptica ATCC 4466; assay: In vitro antibacterial spectrum profile, agar diffusion; conditions: Pectobacterium atrosepticum, ATCC4466, read-out: Inhib. Zone Diam.
# Bacillus sp. MB-633 = assay: as above; conditions: read-out: Inhib. Zone Diam.
# Protocol: The test to determine the antibiotic spectrum profile of antibiotic 890A2 is carried out by saturating 1/4 inch diameter paper discs in a solution of antibiotic 890A2 in 5% methanol at a concentration of 5 μg./ml.; air drying the saturated paper discs and placing them on the surface of 100 × 15 mm. petri plates containing 5 ml. of seeded nutrient agar plus 0.2% yeast extract.
# The test to determine the antibiotic spectrum profile of antibiotic 890A5 is carried out by application of a 0.015 ml. droplet of a 33 μg./ml. aqueous solution of the antibiotic on the surface of a 100 × 15 mm. petri plate containing 5 ml. of seeded nutrient agar plus 0.2% yeast extract.
# [8] = tested on: Xanthomonas vesicatoria MB-815; assay: as above; conditions: read-out: Inhib. Zone Diam.
# [9] = tested on: Pseudomonas stutzeri ATCC 11607; assay: as above; conditions: Stutzerimonas stutzeri, ATCC11607, read-out: Inhib. Zone Diam.
# [10] = tested on: Streptoccocus faecium MB-2820; assay: as above; conditions: read-out: Inhib. Zone Diam.
# Escherichia coli MB-1418 = assay: as above; conditions: read-out: Inhib. Zone Diam.
# [11] = tested on: Alcaligenes faecalis ATCC 213; assay: as above; conditions: read-out: Inhib. Zone Diam.
# [12] = tested on: Streptococcus faecalis MB-753; assay: as above; conditions: Enterococcus faecalis, MB753, read-out: Inhib. Zone Diam.
# Sarcina lutea ATCC 9341 = assay: as above; conditions: Micrococcus luteus, ATCC9341, read-out: Inhib. Zone Diam.
# [13] = tested on: Salmonella gallinarum MB-1287; assay: as above; conditions: Salmonella enterica, read-out: Inhib. Zone Diam.
# [14] = tested on: Proteus vulgaris ATCC 21100; assay: as above; conditions: read-out: Inhib. Zone Diam.
# [15] = tested on: Proteus mirabilis MB-3126; assay: as above; conditions: read-out: Inhib. Zone Diam.
# [16] = tested on: Escherichia coli ATCC 9637; assay: as above; conditions: read-out: Inhib. Zone Diam.
# [17] = tested on: Brucella bronchiseptica ATCC 4617; assay: microbe, parasite or virus in culture; conditions: Bordetella bronchiseptica, ATCC4617, read-out: Inhib. Zone Diam.
# [18] = tested on: Pseudomonas aeruginosa MB-979; assay: In vitro antibacterial spectrum profile, agar diffusion; conditions: read-out: Inhib. Zone Diam.
# [19] = tested on: Staphylococcus aureus ATCC 6538 P; assay: as above
# [20] = tested on: Klebsiella pneumoniae MB-1264; assay: as above; conditions: read-out: Inhib. Zone Diam.
# [21] = tested on: Pseudomonas aeruginosa MB-2824; assay: as above; conditions: read-out: Inhib. Zone Diam.
# [22] = tested on: Streptococcus agalactiae MB-2875; assay: as above; conditions: read-out: Inhib. Zone Diam.
# Proteus vulgaris MB-1012 = assay: as above; conditions: read-out: Inhib. Zone Diam.
# [23] = tested on: Bacillus subtilis ATCC 6633; assay: as above
# [24] = 890A2 5 μg./ml., 1/4 inch paper disc
# [25] = 890A5 33 μg./ml., 0.015 ml. droplet
structure (smiles),measurement,setting,value
CC(=O)NC=CSC1=C(C(=O)O)N2C(=O)C(C(C)O)C2C1 (stereo not drawn) [Antibiotic 890A2],zone of inhibition at 5 µg/mL,[1],11 mm
same,zone of inhibition at 5 µg/mL,[2]; [24],11 mm
same,zone of inhibition at 5 µg/mL,"[3]; MB698, 890A2 5 μg./ml., 1/4 inch paper disc",30 mm
same,zone of inhibition at 5 µg/mL,[4]; [24],31 mm
same,zone of inhibition at 5 µg/mL,[5]; [24],27 mm
same,zone of inhibition at 5 µg/mL,[6],31 mm
same,zone of inhibition at 5 µg/mL,[7]; [24],26 mm
same,zone of inhibition at 5 µg/mL,"Bacillus sp. MB-633; SP.MB633, 890A2 5 μg./ml., 1/4 inch paper disc",40 mm
same,zone of inhibition at 5 µg/mL,"[8]; MB815, 890A2 5 μg./ml., 1/4 inch paper disc",29 mm
same,zone of inhibition at 5 µg/mL,[9]; [24],19 mm
same,zone of inhibition at 5 µg/mL,[10]; [24],22 mm
same,zone of inhibition at 5 µg/mL,"Escherichia coli MB-1418; MB1418, 890A2 5 μg./ml., 1/4 inch paper disc",32 mm
same,zone of inhibition at 5 µg/mL,"[11]; ATCC213, 890A2 5 μg./ml., 1/4 inch paper disc",34 mm
same,zone of inhibition at 5 µg/mL,[12]; [24],12 mm
same,zone of inhibition at 5 µg/mL,Sarcina lutea ATCC 9341; [24],42 mm
same,zone of inhibition at 5 µg/mL,[13]; [24],33 mm
same,zone of inhibition at 5 µg/mL,"[14]; ATCC21100, 890A2 5 μg./ml., 1/4 inch paper disc",30 mm
same,zone of inhibition at 5 µg/mL,"[15]; MB3126, 890A2 5 μg./ml., 1/4 inch paper disc",22 mm
same,zone of inhibition at 5 µg/mL,"[16]; ATCC9637, 890A2 5 μg./ml., 1/4 inch paper disc",29 mm
same,zone of inhibition at 5 µg/mL,[17],29 mm
same,zone of inhibition at 5 µg/mL,"[18]; MB979, 890A2 5 μg./ml., 1/4 inch paper disc",0 mm
same,zone of inhibition at 5 µg/mL,"[19]; ATCC6538, read-out: Inhib. Zone Diam.",34 mm
same,zone of inhibition at 5 µg/mL,"[20]; MB1264, 890A2 5 μg./ml., 1/4 inch paper disc",31 mm
same,zone of inhibition at 5 µg/mL,"[21]; MB2824, 890A2 5 μg./ml., 1/4 inch paper disc",13 mm
same,zone of inhibition at 5 µg/mL,"[22]; MB2875, 890A2 5 μg./ml., 1/4 inch paper disc",32 mm
same,zone of inhibition at 5 µg/mL,"Proteus vulgaris MB-1012; MB1012, 890A2 5 μg./ml., 1/4 inch paper disc",11 mm
same,zone of inhibition at 5 µg/mL,"[23]; ATCC6633, 890A2 5 μg./ml., 1/4 inch paper disc, read-out: Inhib. Zone Diam.",42 mm
CC(=O)NC=CSC1=C(C(=O)O)N2C(=O)C(C(C)O)C2C1 (stereo not drawn) [Antibiotic 890A5],zone of inhibition at 33 µg/mL,[1],35 mm
same,zone of inhibition at 33 µg/mL,[2],15 mm
same,zone of inhibition at 33 µg/mL,"[3]; MB698, 890A5 33 μg./ml., 0.015 ml. droplet",35 mm
same,zone of inhibition at 33 µg/mL,[4]; [25],32 mm
same,zone of inhibition at 33 µg/mL,[5]; [25],24 mm
same,zone of inhibition at 33 µg/mL,[6],36 mm
same,zone of inhibition at 33 µg/mL,[7]; [25],21 mm
same,zone of inhibition at 33 µg/mL,"Bacillus sp. MB-633; SP.MB633, 890A5 33 μg./ml., 0.015 ml. droplet",18 mm
same,zone of inhibition at 33 µg/mL,"[8]; MB815, 890A5 33 μg./ml., 0.015 ml. droplet",20 mm
same,zone of inhibition at 33 µg/mL,[9]; [25],14 mm
same,zone of inhibition at 33 µg/mL,[10]; [25],0 mm
same,zone of inhibition at 33 µg/mL,"Escherichia coli MB-1418; MB1418, 890A5 33 μg./ml., 0.015 ml. droplet",27 mm
same,zone of inhibition at 33 µg/mL,"[11]; ATCC213, 890A5 33 μg./ml., 0.015 ml. droplet",25 mm
same,zone of inhibition at 33 µg/mL,[12]; [25],0 mm
same,zone of inhibition at 33 µg/mL,Sarcina lutea ATCC 9341; [25],40 mm
same,zone of inhibition at 33 µg/mL,[13]; [25],26 mm
same,zone of inhibition at 33 µg/mL,"[14]; ATCC21100, 890A5 33 μg./ml., 0.015 ml. droplet",27 mm
same,zone of inhibition at 33 µg/mL,"[15]; MB3126, 890A5 33 μg./ml., 0.015 ml. droplet",20 mm
same,zone of inhibition at 33 µg/mL,"[16]; ATCC9637, 890A5 33 μg./ml., 0.015 ml. droplet",24 mm
same,zone of inhibition at 33 µg/mL,[17],22 mm
same,zone of inhibition at 33 µg/mL,"[18]; MB979, 890A5 33 μg./ml., 0.015 ml. droplet",0 mm
same,zone of inhibition at 33 µg/mL,"[19]; ATCC6538, 890A5 33 μg./ml., 0.015 ml. droplet, read-out: Inhib. Zone Diam.",34 mm
same,zone of inhibition at 33 µg/mL,"[20]; MB1264, 890A5 33 μg./ml., 0.015 ml. droplet",27 mm
same,zone of inhibition at 33 µg/mL,"[21]; MB2824, 890A5 33 μg./ml., 0.015 ml. droplet",0 mm
same,zone of inhibition at 33 µg/mL,"[22]; MB2875, 890A5 33 μg./ml., 0.015 ml. droplet",27 mm
same,zone of inhibition at 33 µg/mL,"Proteus vulgaris MB-1012; MB1012, 890A5 33 μg./ml., 0.015 ml. droplet",23 mm
same,zone of inhibition at 33 µg/mL,"[23]; ATCC6633, read-out: Inhib. Zone Diam.",27 mm
